Measured values reported in ChEMBL document CHEMBL1138015, “A 13C NMR approach to categorizing potential limitations of alpha,beta-unsaturated carbonyl systems in drug-like molecules” (Bioorg Med Chem Lett, 2004).

Columns and labels:
[1] = biological target: T1, Vascular endothelial growth factor receptor 2 (Homo sapiens, UniProt P35968); assay: Inhibition of Vascular endothelial growth factor receptor 2(KDR) with DTT (dithiothreitol)
[2] = biological target: T1, Vascular endothelial growth factor receptor 2; assay: Inhibition of Vascular endothelial growth factor receptor 2(KDR) without DTT (dithiothreitol)
[3] = Percent remaining after incubation with NADPH in S9 cell was determined; assay type: ADME, cell-based

T1 sequence (P35968 whole entry): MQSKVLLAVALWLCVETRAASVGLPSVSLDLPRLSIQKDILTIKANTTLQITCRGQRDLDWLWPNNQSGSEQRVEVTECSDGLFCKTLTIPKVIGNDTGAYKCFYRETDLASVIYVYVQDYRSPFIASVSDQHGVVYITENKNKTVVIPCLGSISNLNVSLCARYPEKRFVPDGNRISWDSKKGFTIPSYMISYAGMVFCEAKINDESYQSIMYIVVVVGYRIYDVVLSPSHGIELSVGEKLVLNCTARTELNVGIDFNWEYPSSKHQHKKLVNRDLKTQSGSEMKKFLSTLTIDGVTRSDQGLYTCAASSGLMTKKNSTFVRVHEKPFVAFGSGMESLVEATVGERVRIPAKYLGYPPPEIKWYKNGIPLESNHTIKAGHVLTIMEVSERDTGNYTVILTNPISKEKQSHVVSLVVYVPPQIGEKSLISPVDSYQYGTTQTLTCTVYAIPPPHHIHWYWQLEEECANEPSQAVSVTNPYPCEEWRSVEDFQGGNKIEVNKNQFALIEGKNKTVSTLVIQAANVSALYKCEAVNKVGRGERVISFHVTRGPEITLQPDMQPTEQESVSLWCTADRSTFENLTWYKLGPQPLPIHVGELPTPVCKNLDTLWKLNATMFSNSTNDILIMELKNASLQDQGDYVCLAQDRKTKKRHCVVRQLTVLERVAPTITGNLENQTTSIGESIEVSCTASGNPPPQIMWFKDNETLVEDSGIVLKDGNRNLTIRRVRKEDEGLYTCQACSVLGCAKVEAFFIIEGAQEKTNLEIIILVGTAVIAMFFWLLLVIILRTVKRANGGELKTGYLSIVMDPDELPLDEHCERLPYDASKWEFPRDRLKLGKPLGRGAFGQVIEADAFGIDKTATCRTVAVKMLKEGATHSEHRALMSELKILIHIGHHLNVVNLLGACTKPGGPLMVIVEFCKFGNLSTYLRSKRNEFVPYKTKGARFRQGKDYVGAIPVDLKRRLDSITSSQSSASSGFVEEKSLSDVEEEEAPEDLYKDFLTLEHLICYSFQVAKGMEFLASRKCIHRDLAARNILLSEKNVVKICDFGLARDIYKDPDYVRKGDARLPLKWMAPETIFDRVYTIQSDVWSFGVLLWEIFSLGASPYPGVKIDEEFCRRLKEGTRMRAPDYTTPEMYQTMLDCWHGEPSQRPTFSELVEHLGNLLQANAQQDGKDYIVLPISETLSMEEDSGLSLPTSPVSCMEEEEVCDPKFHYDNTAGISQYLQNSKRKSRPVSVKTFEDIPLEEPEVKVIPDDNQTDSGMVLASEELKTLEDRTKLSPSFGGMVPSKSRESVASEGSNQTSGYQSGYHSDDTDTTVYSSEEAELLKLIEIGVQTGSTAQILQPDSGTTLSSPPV

SMILES | IC50 [1] [µM] | IC50 [2] [µM] | Remaining activity [3] [%]
O=C1Nc2ccccc2S/C1=C\c1c[nH]c2c(C(=O)N3CCC(N4CCCCC4)CC3)cccc12 | 0.17 | 0.72 | 
O=C1Nc2ccccc2S/C1=C\c1c[nH]c2cc(OCCN3CCOCC3)ccc12 | 0.16 | 0.29 | 
CCN(CC)CCc1c(C)[nH]c(/C=C2\C(=O)NN=C2C2CC2)c1C | 0.84 | 2.5 | 80
O=C1NN=C(c2cnccn2)/C1=C/c1cc2ccccc2[nH]1 | 40 | 0.41 | 
Cc1[nH]c(/C=C2\C(=O)NN=C2c2cnccn2)c(C)c1CN(C)C |  |  | 18
O=C1NN=C(c2cnccn2)/C1=C/c1[nH]c2ccccc2c1-c1ccccc1 | 0.47 | 0.02 | 
Cc1c(/C=C2\C(=O)NN=C2c2cnccn2)[nH]c2ccccc12 | 0.14 | 0.06 | 
CCN(CC)CCc1c(C)[nH]c(/C=C2\C(=O)NN=C2c2cnccn2)c1C | 0.08 | 0.21 | 72
